Experiments:
[1] = Solution stability test of zileuton in solvents (TRS %); assay type: physicochemical; conditions: for TRS increase rate %: Day 0 to Day 8
Protocol: In the solution stability test, suitability with solvents for solubilizing zileuton (ethanol, PEG400, propylene glycol, hexylene glycol, capryol 90, benzyl alcohol, water) was screened.
As a result, as illustrated in Tables 2 and 3 below, most of the solvents were suitable to zileuton under the 25° C. condition, but were unstable under the condition of 40° C. or 70° C.

[2] = Solubility of zileuton in solvents at 25° C.(RT); assay type: physicochemical
Excerpt: Furthermore, the suitability of other various solvents for solubilizing zileuton was screened. […] Especially, hydrophilics solvents such as alcohols may be preferably used.

[3] = system: Delayed Type Hypersensitivity Reaction in mouse induced by DNFB; assay: Mouse atopic dermatitis model, DNFB-induced ear inflammation; assay type: in vivo, BALB/c mouse; conditions: ear tissues after day 5 stimulation
Protocol: According to an embodiment of the present invention, the medical effect of the cream type topical pharmaceutical composition has been verified in a Delayed Type Hypersensitivity Reaction in mouse induced by DNFB. The test article was applied to a mouse's skin 3 times a day, and then the medical effect was measured. Furthermore, an excess amount of the zileuton was injected using a non-optimized test vehicle, acetone.
For this purpose, BALB/c mice were divided into […], each consisting of 10 mice. The groups were divided into a vehicle (acetone), positive control group (dexamethasone 0.05 mg/ear; Dex), and zileuton groups ([…]). And the zileuton groups were divided into cases where acetone (1 mg/ear) and the cream formulation of […] (0.2 mg/ear and 0.02 mg/ear) were used, respectively.
Then, on day 5, 20 μl of 0.3% DNFB was applied once again to cause inflammation in the ears. Then, dexamethasone and zileuton dissolved in acetone vehicle were applied to the ears at 1 hour, 6 hours, and 23 hours after the stimulation on day 5. Thicknesses of the ears were measured at 24 hours after the stimulation on day 5, and then ear tissues were taken for histopathological observation.

[4] = system: inflammation reaction of asthma; conditions: clinical trials; oral drug; cited from earlier work
[5] = system: liver functions of the patient; conditions: oral administration; cited from earlier work

## CC(c1cc2ccccc2s1)N(O)C(N)=O (racemic) [Zileuton, (±)-1-(1-(benzo [b]thiophen-2-yl)ethyl)-1-hydroxyurea]
[1]; in Benzyl alcohol, 25° C., Day 0
  TRS (%): 1.642%
[1]; in Benzyl alcohol, 25° C.
  TRS increase rate %: 0.381%
[1]; in Benzyl alcohol, 25° C., Day 1
  TRS (%): 0.869%
[1]; in Benzyl alcohol, 25° C., Day 3
  TRS (%): 1.806%
[1]; in Benzyl alcohol, 25° C., Day 8
  TRS (%): 2.023%
[1]; in Benzyl alcohol, 70° C., Day 0
  TRS (%): 1.642%
[1]; in Benzyl alcohol, 70° C.
  TRS increase rate %: 22.608%
[1]; in Benzyl alcohol, 70° C., Day 1
  TRS (%): 11.350%
[1]; in Benzyl alcohol, 70° C., Day 3
  TRS (%): 20.397%
[1]; in Benzyl alcohol, 70° C., Day 8
  TRS (%): 24.250%
[1]; in Capryol 90, 25° C., Day 0
  TRS (%): 1.623%
[1]; in Capryol 90, 25° C.
  TRS increase rate %: 0.578%
[1]; in Capryol 90, 25° C., Day 1
  TRS (%): 1.444%
[1]; in Capryol 90, 25° C., Day 3
  TRS (%): 1.478%
[1]; in Capryol 90, 25° C., Day 8
  TRS (%): 2.201%
[1]; in Capryol 90, 70° C., Day 0
  TRS (%): 1.623%
[1]; in Capryol 90, 70° C.
  TRS increase rate %: 74.822%
[1]; in Capryol 90, 70° C., Day 1
  TRS (%): 10.312%
[1]; in Capryol 90, 70° C., Day 3
  TRS (%): 39.603%
[1]; in Capryol 90, 70° C., Day 8
  TRS (%): 76.445%
[1]; in Ethanol, 25° C., Day 0
  TRS (%): 1.255%
[1]; in Ethanol, 25° C.
  TRS increase rate %: 0.882%
[1]; in Ethanol, 25° C., Day 1
  TRS (%): 1.014%
[1]; in Ethanol, 25° C., Day 3
  TRS (%): 1.951%
[1]; in Ethanol, 25° C., Day 8
  TRS (%): 2.137%
[1]; in Ethanol, 40° C., Day 0
  TRS (%): 1.255%
[1]; in Ethanol, 40° C.
  TRS increase rate %: 3.449%
[1]; in Ethanol, 40° C., Day 1
  TRS (%): 1.778%
[1]; in Ethanol, 40° C., Day 3
  TRS (%): 2.375%
[1]; in Ethanol, 40° C., Day 8
  TRS (%): 4.704%
[1]; in Hexylene glycol, 25° C., Day 0
  TRS (%): 1.505%
[1]; in Hexylene glycol, 25° C.
  TRS increase rate %: 0.475%
[1]; in Hexylene glycol, 25° C., Day 1
  TRS (%): 1.448%
[1]; in Hexylene glycol, 25° C., Day 3
  TRS (%): 1.583%
[1]; in Hexylene glycol, 25° C., Day 8
  TRS (%): 1.980%
[1]; in Hexylene glycol, 70° C., Day 0
  TRS (%): 1.505%
[1]; in Hexylene glycol, 70° C.
  TRS increase rate %: 58.847%
[1]; in Hexylene glycol, 70° C., Day 1
  TRS (%): 8.061%
[1]; in Hexylene glycol, 70° C., Day 3
  TRS (%): 29.999%
[1]; in Hexylene glycol, 70° C., Day 8
  TRS (%): 60.352%
[1]; in Polyethylene glycol (PEG-400), 25° C., Day 0
  TRS (%): 1.427%
[1]; in Polyethylene glycol (PEG-400), 25° C.
  TRS increase rate %: 2.638%
[1]; in Polyethylene glycol (PEG-400), 25° C., Day 1
  TRS (%): 1.491%
[1]; in Polyethylene glycol (PEG-400), 25° C., Day 3
  TRS (%): 2.897%
[1]; in Polyethylene glycol (PEG-400), 25° C., Day 8
  TRS (%): 4.065%
[1]; in Polyethylene glycol (PEG-400), 70° C., Day 0
  TRS (%): 1.427%
[1]; in Polyethylene glycol (PEG-400), 70° C.
  TRS increase rate %: 95.715%
[1]; in Polyethylene glycol (PEG-400), 70° C., Day 1
  TRS (%): 43.725%
[1]; in Polyethylene glycol (PEG-400), 70° C., Day 3
  TRS (%): 94.366%
[1]; in Polyethylene glycol (PEG-400), 70° C., Day 8
  TRS (%): 97.142%
[1]; in Propylene glycol, 25° C., Day 0
  TRS (%): 1.457%
[1]; in Propylene glycol, 25° C.
  TRS increase rate %: 0.675%
[1]; in Propylene glycol, 25° C., Day 1
  TRS (%): 1.624%
[1]; in Propylene glycol, 25° C., Day 3
  TRS (%): 1.478%
[1]; in Propylene glycol, 25° C., Day 8
  TRS (%): 2.132%
[1]; in Propylene glycol, 70° C., Day 0
  TRS (%): 1.457%
[1]; in Propylene glycol, 70° C.
  TRS increase rate %: 94.868%
[1]; in Propylene glycol, 70° C., Day 1
  TRS (%): 26.382%
[1]; in Propylene glycol, 70° C., Day 3
  TRS (%): 82.228%
[1]; in Propylene glycol, 70° C., Day 8
  TRS (%): 96.325%
[1]; in Water, 25° C., Day 0
  TRS (%): 1.424%
[1]; in Water, 25° C.
  TRS increase rate %: 0.541%
[1]; in Water, 25° C., Day 1
  TRS (%): 1.879%
[1]; in Water, 25° C., Day 3
  TRS (%): 1.816%
[1]; in Water, 25° C., Day 8
  TRS (%): 1.965%
[1]; in Water, 70° C., Day 0
  TRS (%): 1.424%
[1]; in Water, 70° C.
  TRS increase rate %: 90.570%
[1]; in Water, 70° C., Day 1
  TRS (%): 35.171%
[1]; in Water, 70° C., Day 3
  TRS (%): 80.268%
[1]; in Water, 70° C., Day 8
  TRS (%): 91.994%
[2]; in Caprylocaproyl Polyoxyl-8 Glycerides/Labrasol
  Zileuton Solubility at RT (% w/w): 10.81-11.42 % w/w
[2]; in Castor Oil
  Zileuton Solubility at RT (% w/w): <0.16 % w/w
[2]; in Cyclomethicone
  Zileuton Solubility at RT (% w/w): <0.06 % w/w
[2]; in Diethylene Glycol Monoethyl Ether/Transcutol P
  Zileuton Solubility at RT (% w/w): 17.11-17.62 % w/w
[2]; in Dimethicone
  Zileuton Solubility at RT (% w/w): <0.06 % w/w
[2]; in Isopropyl Myristate
  Zileuton Solubility at RT (% w/w): <0.20 % w/w
[2]; in Light Mineral Oil
  Zileuton Solubility at RT (% w/w): <0.04 % w/w
[2]; in Medium Chain Triglycerides
  Zileuton Solubility at RT (% w/w): <0.21 % w/w
[2]; in Olive Oil
  Zileuton Solubility at RT (% w/w): <0.07 % w/w
[2]; in Polyglyceryl-6 Dioleate
  Zileuton Solubility at RT (% w/w): <0.06 % w/w
[2]; in Polyglyceryl-10 Mono/Dioleate/Caprol PGE-860
  Zileuton Solubility at RT (% w/w): <0.16 % w/w
[2]; in Polyoxyethylene (20) Sorbitan Monolaurate/Tween 20
  Zileuton Solubility at RT (% w/w): 8.42-9.24 % w/w
[2]; in Polyoxyl 40 Hydrogenated Castor Oil/Kolliphor RH40
  Zileuton Solubility at RT (% w/w): <0.37 % w/w
[2]; in Propylene Glycol Dicaprylocaprate
  Zileuton Solubility at RT (% w/w): <0.20 % w/w
[2]; in Safflower Oil
  Zileuton Solubility at RT (% w/w): <0.07 % w/w
[2]; in Squalane
  Zileuton Solubility at RT (% w/w): <0.04 % w/w
[2]; in Triacetin
  Zileuton Solubility at RT (% w/w): 0.50-0.72 % w/w
[3]
  Histopathological observation, anti-inflammation function: excellent anti-inflammation function
[4]
  Anti-inflammatory effect in asthma: effective anti-inflammatory pharmaceutical effect
[5]
  Hepatotoxicity: significant hepatotoxicity

— patent publication US9855243B2, “Topical anti-inflammatory pharmaceutical composition with zileuton cream formulation” (Qurient Co., Ltd., priority 2013, dated 2018)
